Experimental data reported in ChEMBL document CHEMBL1138591, “Hair growth stimulator property of thienyl substituted pyrazole carboxamide derivatives as a CB1 receptor antagonist with in vivo antiobesity effect” (Bioorg Med Chem Lett, 2009).
Calls of active or inactive are those of the source. No cut-off for these calls is given here.

Assays:
Cannabinoid receptor 1 = Cannabinoid receptor 1 (Homo sapiens, UniProt P21554); assay: Antagonist activity at human cannabinoid CB1 receptor expressed in CHOK1 cells assessed as cAMP activity; type: functional, cell-based, CHO-K1
Cannabinoid receptor 2 = Cannabinoid receptor 2 (Homo sapiens, UniProt P34972); assay: Antagonist activity at human cannabinoid CB2 receptor expressed in CHOK1 cells assessed as cAMP activity; type: functional, cell-based, CHO-K1
Rattus norvegicus = assay: Antiobesity activity in Zucker fa/fa rat assessed as inhibition of 5% sucrose solution intake at 10 mg/kg administered as single dose up to 4 hrs relative to control; type: functional
[1] = Plasma concentration in fasted Zucker fa/fa rat at 30 mg/kg, po after 3 hrs; type: ADME, organism-based; parameters: dose 30 mg/kg, route oral
Mus musculus [2] = assay: Hair growth stimulatory activity in high fat diet-induced C57BL/6J mouse assessed as bald area at 10 mg/kg, po administered once daily for 28 days measured after 28 days (Rvb=0.346 +/- 0.079 cm'2); type: functional
Mus musculus [3] = assay: Hair growth stimulatory activity in high fat diet-induced C57BL/6J mouse at 10 mg/kg administered tropically for 28 days measured after 28 days; type: functional, organism-based; parameters: dose 10 mg/kg
[4] = Drug level in fasted Zucker fa/fa rat brain at 30 mg/kg, po after 3 hrs; type: ADME, organism-based; parameters: dose 30 mg/kg, route oral; conditions: read-out: Drug uptake
[5] = Drug level in fasted Zucker fa/fa rat white adipose tissue at 30 mg/kg, po after 3 hrs; type: ADME, organism-based; parameters: dose 30 mg/kg, route oral; conditions: read-out: Drug uptake
[6] = Drug level in fasted Zucker fa/fa rat white adipose tissue assessed per gram of tissue at 30 mg/kg, po after 3 hrs; type: ADME, organism-based; parameters: dose 30 mg/kg, route oral; conditions: read-out: Drug uptake
Mus musculus [7] = assay: Antiobesity activity in high fat diet-induced obese C57BL/6J mouse model assessed as reduction in food intake at 10 mg/kg, po administered once daily for 28 days; type: functional, organism-based; parameters: dose 10 mg/kg
Mus musculus [8] = assay: Hair growth stimulatory activity in high fat diet-induced C57BL/6J mouse at 10 mg/kg, po administered once daily for 28 days measured after 28 days; type: functional, organism-based; parameters: dose 10 mg/kg
Mus musculus [9] = assay: Antiobesity activity in high fat diet-induced obese C57BL/6J mouse model assessed as reduction in body weight gain at 10 mg/kg, po administered once daily for 28 days; type: functional, organism-based; parameters: dose 10 mg/kg
Mus musculus [10] = assay: Inhibition of WIN-55212-2-induced analgesia in Swiss albino mouse assessed as maximal possible effect at 1 mg/kg po by hot plate method; type: functional; parameters: scale not given: the % may be the effect or the level left
Mus musculus [11] = assay: Inhibition of WIN-55212-2-induced analgesia in Swiss albino mouse assessed as maximal possible effect at 3 mg/kg po by hot plate method; type: functional; parameters: scale not given: the % may be the effect or the level left
Mus musculus [12] = assay: Inhibition of WIN-55212-2-induced analgesia in Swiss albino mouse assessed as maximal possible effect at 5 mg/kg po by hot plate method; type: functional; parameters: scale not given: the % may be the effect or the level left
Mus musculus [13] = assay: Inhibition of WIN-55212-2-induced analgesia in Swiss albino mouse assessed as maximal possible effect at 10 mg/kg po by hot plate method; type: functional; parameters: scale not given: the % may be the effect or the level left
Mus musculus [14] = assay: Inhibition of WIN-55212-2-induced catalepsy in Swiss albino mouse assessed as immobility on ring at 1 mg/kg po up to 300 seconds by ring test; type: functional; parameters: scale not given: the % may be the effect or the level left
Mus musculus [15] = assay: Inhibition of WIN-55212-2-induced catalepsy in Swiss albino mouse assessed as immobility on ring at 3 mg/kg po up to 300 seconds by ring test; type: functional; parameters: scale not given: the % may be the effect or the level left
Mus musculus [16] = assay: Inhibition of WIN-55212-2-induced catalepsy in Swiss albino mouse assessed as immobility on ring at 5 mg/kg po up to 300 seconds by ring test; type: functional; parameters: scale not given: the % may be the effect or the level left
Mus musculus [17] = assay: Inhibition of WIN-55212-2-induced catalepsy in Swiss albino mouse assessed as immobility on ring at 10 mg/kg po up to 300 seconds by ring test; type: functional; parameters: scale not given: the % may be the effect or the level left
Mus musculus [18] = assay: Effect on WIN-55212-2-induced locomotor activity in Swiss albino mouse assessed as number of square crossed at 1 mg/kg po up to 300 seconds (RbV=20.67 +/- 3.38 squares); type: functional
Mus musculus [19] = assay: Effect on WIN-55212-2-induced locomotor activity in Swiss albino mouse assessed as number of square crossed at 3 mg/kg po up to 300 seconds (RbV=20.67 +/- 3.38 squares); type: functional
Mus musculus [20] = assay: Effect on WIN-55212-2-induced locomotor activity in Swiss albino mouse assessed as number of square crossed at 5 mg/kg po up to 300 seconds (RbV=20.67 +/- 3.38 squares); type: functional
Mus musculus [21] = assay: Effect on WIN-55212-2-induced locomotor activity in Swiss albino mouse assessed as number of square crossed at 10 mg/kg po up to 300 seconds (RbV=20.67 +/- 3.38 squares); type: functional
[22] = Tmax in fasted Zucker fa/fa rat at 30 mg/kg, po; type: ADME, organism-based; parameters: dose 30 mg/kg, route oral; conditions: in vivo
[23] = Cmax in fasted Zucker fa/fa rat at 30 mg/kg, po; type: ADME, organism-based; parameters: dose 30 mg/kg, route oral; conditions: in vivo
[24] = Half life in fasted Zucker fa/fa rat at 30 mg/kg, po; type: ADME, organism-based; parameters: dose 30 mg/kg, route oral; conditions: in vivo
[25] = AUC (0 to infinity) in fasted Zucker fa/fa rat at 30 mg/kg, po; type: ADME, organism-based; parameters: time infinity, dose 30 mg/kg, route oral; conditions: plasma
[26] = Drug level in fasted Zucker fa/fa rat brain assessed per gram of brain at 30 mg/kg, po after 3 hrs; type: ADME, organism-based; parameters: dose 30 mg/kg, route oral; conditions: read-out: Drug uptake
Mus musculus [27] = species: Mus musculus; conditions: Swiss albino, 1 mg/kg
Description: Inhibition of WIN-55212-2-induced hypothermia in Swiss albino mouse assessed as change in body temperature at 1 mg/kg po

Mus musculus [28] = species: Mus musculus; conditions: Swiss albino, 3 mg/kg
Description: Inhibition of WIN-55212-2-induced hypothermia in Swiss albino mouse assessed as change in body temperature at 3 mg/kg po

Mus musculus [29] = species: Mus musculus; conditions: Swiss albino, 5 mg/kg
Description: Inhibition of WIN-55212-2-induced hypothermia in Swiss albino mouse assessed as change in body temperature at 5 mg/kg po

Mus musculus [30] = species: Mus musculus; conditions: Swiss albino, 10 mg/kg
Description: Inhibition of WIN-55212-2-induced hypothermia in Swiss albino mouse assessed as change in body temperature at 10 mg/kg po

Chain of Cannabinoid receptor 1 (P21554 whole entry): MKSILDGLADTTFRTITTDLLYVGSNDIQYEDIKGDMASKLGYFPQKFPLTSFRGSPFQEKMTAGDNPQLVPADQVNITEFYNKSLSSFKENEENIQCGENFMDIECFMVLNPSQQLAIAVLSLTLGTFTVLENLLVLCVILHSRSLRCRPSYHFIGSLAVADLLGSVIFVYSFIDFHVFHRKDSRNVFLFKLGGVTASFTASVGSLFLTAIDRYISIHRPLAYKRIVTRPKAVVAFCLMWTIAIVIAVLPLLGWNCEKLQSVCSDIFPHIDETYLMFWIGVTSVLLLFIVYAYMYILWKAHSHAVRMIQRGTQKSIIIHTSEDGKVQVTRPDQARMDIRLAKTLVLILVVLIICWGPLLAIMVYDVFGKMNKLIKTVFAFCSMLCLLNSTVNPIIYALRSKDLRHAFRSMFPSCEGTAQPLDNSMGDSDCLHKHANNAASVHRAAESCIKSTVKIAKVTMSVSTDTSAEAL
Chain of Cannabinoid receptor 2 (P34972 whole entry): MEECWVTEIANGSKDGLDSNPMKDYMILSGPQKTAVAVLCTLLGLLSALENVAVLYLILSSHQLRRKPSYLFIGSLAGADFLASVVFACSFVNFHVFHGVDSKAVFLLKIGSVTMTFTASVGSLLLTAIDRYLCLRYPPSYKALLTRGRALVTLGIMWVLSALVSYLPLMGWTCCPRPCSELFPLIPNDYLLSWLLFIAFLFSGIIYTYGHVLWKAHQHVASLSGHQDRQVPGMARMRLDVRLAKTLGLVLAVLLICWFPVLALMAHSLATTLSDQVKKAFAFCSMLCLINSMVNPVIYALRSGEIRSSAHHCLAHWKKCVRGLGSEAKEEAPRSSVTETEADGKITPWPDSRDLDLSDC

With `Cc1c(C(=O)NN2CCCCC2)nn(-c2ccc(Cl)cc2Cl)c1-c1ccc(I)s1` the EC50 (Cannabinoid receptor 1) was 0.32 µM, the EC50 (Cannabinoid receptor 2) was 29.4 µM and the inhibition in vivo at 10 mg/kg (Rattus norvegicus) was 42.1%.
With `Cc1c(C(=O)NN2CCCCC2)nn(-c2ccc(Cl)cc2Cl)c1-c1ccc(Cl)cc1` [RIMONABANT] the concentration at 3 h [1] was 400 ng/mL, the Activity (Mus musculus [2]) was 0.156 cm2 and the Activity (Mus musculus [3]) was “inactive”. For the same molecule, the inhibition in vivo at 10 mg/kg (Rattus norvegicus) was 40.1%, the concentration at 3 h [4] was 150 ng/mL and the concentration at 3 h [5] was 1400 ng/mL.
Work on `Cc1c(C(=O)NN2CCCCC2)nn(-c2ccc(Cl)cc2Cl)c1-c1cccs1` yielded an EC50 (Cannabinoid receptor 1) of 1.33 µM, an EC50 (Cannabinoid receptor 2) of 7.55 µM and an inhibition in vivo at 10 mg/kg (Rattus norvegicus) of 12.4%.
Work on `CCc1c(C(=O)NN2CCCCC2)nn(-c2ccc(Cl)cc2Cl)c1-c1ccc(Cl)s1` yielded an EC50 (Cannabinoid receptor 1) of 0.54 µM, an EC50 (Cannabinoid receptor 2) of 25.9 µM and an inhibition in vivo at 10 mg/kg (Rattus norvegicus) of 31.3%.
`Cc1c(C(=O)NN2CCCCCC2)nn(-c2ccc(Cl)cc2Cl)c1-c1ccc(Cl)s1` showed an EC50 (Cannabinoid receptor 1) of 1.1 µM, an EC50 (Cannabinoid receptor 2) of 12.8 µM and an inhibition in vivo at 10 mg/kg (Rattus norvegicus) of 20.1%.
Molecule `Cc1c(C(=O)NN2CCCCC2)nn(-c2ccc(Cl)cc2Cl)c1-c1ccc(Br)s1` has an EC50 (Cannabinoid receptor 1) of 0.4 µM, an EC50 (Cannabinoid receptor 2) of 23.2 µM and an inhibition in vivo at 10 mg/kg (Rattus norvegicus) of 37.8%.
For `CCc1c(C(=O)NN2CCCCC2)nn(-c2ccc(Cl)cc2Cl)c1-c1ccc(Br)s1`, the EC50 (Cannabinoid receptor 1) was 0.51 µM, the EC50 (Cannabinoid receptor 2) was 19.5 µM and the inhibition in vivo at 10 mg/kg (Rattus norvegicus) was 39.2%.
With `Cc1c(C(=O)NN2CCOCC2)nn(-c2ccc(Cl)cc2Cl)c1-c1ccc(Cl)s1` the EC50 (Cannabinoid receptor 1) was 0.69 µM, the EC50 (Cannabinoid receptor 2) was 7.43 µM and the inhibition in vivo at 10 mg/kg (Rattus norvegicus) was 31.5%.
Molecule `Cc1c(C(=O)NN2CC3CCCC3C2)nn(-c2ccc(Cl)cc2Cl)c1-c1ccc(Cl)s1` (stereo unspecified) has an EC50 (Cannabinoid receptor 1) of 0.8 µM, an EC50 (Cannabinoid receptor 2) of 15.7 µM and an inhibition in vivo at 10 mg/kg (Rattus norvegicus) of 26.3%.
With `Cc1c(C(=O)NN2CCCCC2)nn(-c2ccc(Cl)cc2Cl)c1-c1ccc(Cl)s1` the concentration at 3 h [6] was 2970 ng/g, the concentration at 3 h [1] was 850 ng/mL and the Activity (Mus musculus [7]) was “Active”. The Activity (Mus musculus [2]) was 0.011 cm2, the Activity (Mus musculus [8]) was “Active” and the Activity (Mus musculus [3]) was “inactive”. It also gave an EC50 (Cannabinoid receptor 1) of 0.58 µM, an EC50 (Cannabinoid receptor 2) of 23.7 µM and an inhibition in vivo at 10 mg/kg (Rattus norvegicus) of 48%. For the same molecule, the Activity (Mus musculus [9]) was “Active”, the Activity (Mus musculus [10]) was 34.84% and the Activity (Mus musculus [11]) was 12.28%. It also gave an Activity (Mus musculus [12]) of 4.12%, an Activity (Mus musculus [13]) of 4.35% and an Activity (Mus musculus [14]) of 80.73%. For the same molecule, the Activity (Mus musculus [15]) was 73.13%, the Activity (Mus musculus [16]) was 58.13% and the Activity (Mus musculus [17]) was 41.8%. For the same molecule, the Activity (Mus musculus [18]) was 69.8, the Activity (Mus musculus [19]) was 109.2 and the Activity (Mus musculus [20]) was 126.5. For the same molecule, the Activity (Mus musculus [21]) was 171.4, the Tmax [22] was 1.4 h and the Cmax [23] was 520 ng/mL. It also gave a half-life [24] of 20.8 h, an AUC(0-inf) [25] of 12400 ng·h/mL and a concentration at 3 h [4] of 210 ng/mL. It also gave a concentration at 3 h [26] of 640 ng/g, a concentration at 3 h [5] of 980 ng/mL and a deltaT (Mus musculus [27]) of 2.56 °C. It also gave a deltaT (Mus musculus [28]) of 1.92 °C, a deltaT (Mus musculus [29]) of 0.23 °C and a deltaT (Mus musculus [30]) of 0.23 °C.
In the case of `Cc1c(C(=O)NN2CCCC2)nn(-c2ccc(Cl)cc2Cl)c1-c1ccc(Cl)s1`, the EC50 (Cannabinoid receptor 1) is reported as 1 µM, the EC50 (Cannabinoid receptor 2) is reported as 20.9 µM and the inhibition in vivo at 10 mg/kg (Rattus norvegicus) is reported as 34.3%.
